ChEMBL document CHEMBL5500371, “Arginine and tryptophan-rich dendritic antimicrobial peptides that disrupt membranes for bacterial infection in vivo” (Eur J Med Chem, 2024)

What was measured:
Erythrocyte = experiment: Hemolytic activity in mouse erythrocytes assessed as 10% hemolysis incubated for 1 hr by absorbance based analysis; format: toxicity, cell-based
HEK-293T = experiment: Cytotoxicity against HEK293T cells assessed as cell death measured after 1 hr by resazurin dye based analysis; format: toxicity; conditions: human, hek-293t, 1 h
[1] = Therapeutic index, ratio of MHC10 for hemolytic activity in mouse erythrocytes preincubated with 10% mouse serum for 1 hr to MIC for Escherichia coli ATCC 25922 preincubated with 10% mouse serum for 1 hr; format: toxicity, cell-based; conditions: erythrocytes
[2] = Therapeutic index, ratio of MHC10 for hemolytic activity in mouse erythrocytes preincubated with 10% mouse serum for 6 hrs to MIC for Escherichia coli ATCC 25922 preincubated with 10% mouse serum for 6 hrs; format: toxicity, cell-based; conditions: erythrocytes
[3] = Therapeutic index, ratio of MHC10 for hemolytic activity in mouse erythrocytes preincubated with 10% mouse serum for 1 hr to MIC for Staphylococcus aureus ATCC 25923 preincubated with 10% mouse serum for 1 hr; format: toxicity, cell-based; conditions: erythrocytes
[4] = Therapeutic index, ratio of MHC10 for hemolytic activity in mouse erythrocytes preincubated with 10% mouse serum for 6 hrs to MIC for Staphylococcus aureus ATCC 25923 preincubated with 10% mouse serum for 6 hrs; format: toxicity, cell-based; conditions: erythrocytes
[5] = Acute toxicity in male BALB/c mouse assessed as animal death at 16.3 to 24.5 mg/kg, ip administered as single dose and measured after 60 mins; format: organism-based; conditions: in vivo, 1 h, dose 16.3-24.5 mg/kg
[6] = Acute toxicity in male BALB/c mouse assessed as eye closure at 16.3 to 24.5 mg/kg, ip administered as single dose and measured after 60 mins; format: organism-based; conditions: in vivo, 1 h, dose 16.3-24.5 mg/kg
[7] = Acute toxicity in male BALB/c mouse assessed as convulsions at 16.3 to 24.5 mg/kg, ip administered as single dose and measured after 60 mins; format: organism-based; conditions: in vivo, 1 h, dose 16.3-24.5 mg/kg
[8] = Acute toxicity in male BALB/c mouse assessed as respiratory asthenia at 16.3 to 24.5 mg/kg, ip administered as single dose and measured after 60 mins; format: organism-based; conditions: in vivo, 1 h, dose 16.3-24.5 mg/kg
[9] = Acute toxicity in male BALB/c mouse assessed as mortality rate at 24.5 mg/kg, ip administered as single dose and measured after 120 mins relative to control; format: organism-based; conditions: in vivo, 2 h
[10] = Acute toxicity in ip dosed male BALB/c mouse administered as single dose; format: organism-based; conditions: in vivo, ip
[11] = Systemic toxicity in male BALB/c mouse assessed as pathological changes in heart at 20.83 mg/kg, ip administered as single dose by H and E staining based analysis; format: organism-based; conditions: in vivo
[12] = Systemic toxicity in male BALB/c mouse assessed as hemorrhage at 20.83 mg/kg, ip administered as single dose by H and E staining based analysis; format: organism-based; conditions: in vivo
[13] = Systemic toxicity in male BALB/c mouse assessed as inflammatory cell infiltration at 20.83 mg/kg, ip administered as single dose by H and E staining based analysis; format: organism-based; conditions: in vivo
[14] = Systemic toxicity in male BALB/c mouse assessed as severe hepatocyte necrosis at 20.83 mg/kg, ip administered as single dose by H and E staining based analysis; format: organism-based; conditions: hepatocytes
[15] = Systemic toxicity in male BALB/c mouse assessed as marked alveolar cavity wrinkling at 20.83 mg/kg, ip administered as single dose by H and E staining based analysis; format: organism-based; conditions: in vivo

## POLYMYXIN B
Erythrocyte
  MHC10: > 256 µM
HEK-293T
  CC50: > 128 µM
[1]
  TI: 1
[2]
  TI: 0.5
[3]
  TI: 1
[4]
  TI: 1
[5]
  Activity: Toxic
[6]
  Activity: Toxic
[7]
  Activity: Toxic
[8]
  Activity: Toxic
[9]
  Activity: 100%
[10]
  LD50: 20.83 mg/kg
[11]
  Activity: Non-Toxic
[12]
  Activity: Toxic
[13]
  Activity: Toxic
[14]
  Activity: Toxic
[15]
  Activity: Toxic
